Measurements from patent US5395947A, “Platinum(II) complex and processes for preparing the same” (Sunkyong Industries, Ltd., priority 1991, dated 1995).

Assays:
[1] = Test for water solubility; type: physicochemical; conditions: water
Text: 3. Test for water solubility
A standard plot of UV absorbance(220 nm) vs. concentration was made; and employed to determine water-solubility.
The mixture was then passed through a 0.45 micron disposable membrane filter before dilution and UV measurement.

[2] = system: murine leukemia L1210 cells; experiment: Growth inhibition test on cultured murine leukemia L1210 cells; type: cell-based; conditions: 48 hours, 37° C., Trypan blue viability
How it was run: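 Read-out is Trypan blue (0.17%) viability versus compound-free controls. Cells, 1×10^5, were cultured 48 h at 37° C under 5% CO2 in RPMI 1640/10% FCS containing various compound concentrations.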

murine leukemia L1210 = experiment: Antitumor activity test on murine leukemia L1210 in vivo; design: species or system male BDF1 mice; conditions: days 1, 5, 9
How it was run: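 Male BDF1 mice (6 weeks, 21±3 g; n=7) received 1×10^6 leukemia cells into the peritoneum on day 0, then test compound suspended or dissolved in 0.5% CMC i.p. on days 1, 5, 9. Activity expressed as T/C %, mean survival treated versus 0.5% CMC-injected controls.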

ICR mice = experiment: Acute toxicity test; type: in vivo; design: Lethality: unit not given here; conditions: for Lethality: 10080 min
How it was run: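 Single i.p. administration to ICR mice (7 weeks old, both sexes, n=6/group); appearance and mortality logged over 7 days, dead animals autopsied for gross pathology.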

## CC1(C)OC2C[NH2+][Pt-2]3([NH2+]CC2O1)[O]C(=O)C1(CCC1)C(=O)[O]3 [Example 26, cis-cyclobutane-1,1-dicarboxylato[(4R,5R)-4,5-bis(aminomethyl)-2,2-dimethyl-1,3-dioxolane]platinum(II)]
[1]
  Solubility in water: 2000 µg/mL
[2]
  IC50 (concentration required for 50% inhibition of growth): 0.65 µg/mL
Murine leukemia L1210; 6.2 mg/kg i.p.
  T/C (%): 124%
Murine leukemia L1210; 12.5 mg/kg i.p.
  T/C (%): 170%
Murine leukemia L1210; 25 mg/kg i.p.
  T/C (%): 217%
Murine leukemia L1210; 50 mg/kg i.p.
  T/C (%): 283%
Murine leukemia L1210; 100 mg/kg i.p.
  T/C (%): 317%
ICR mice; female, 160 mg/kg i.p.
  Number of dead mice for 7 days: 0/6
  Number of dead mice, 1st day: 0/6
ICR mice; female, 208 mg/kg i.p.
  Number of dead mice for 7 days: 0/6
  Number of dead mice, 1st day: 0/6
ICR mice; female, 270 mg/kg i.p.
  Number of dead mice for 7 days: 1/6
  Number of dead mice, 1st day: 0/6
  Number of dead mice, 5th day: 1/6
  Lethality: 16.7
ICR mice; female, 352 mg/kg i.p.
  Number of dead mice for 7 days: 4/6
  Number of dead mice, 1st day: 0/6
  Number of dead mice, 3rd day: 2/6
  Number of dead mice, 4th day: 2/4
  Lethality: 66.7
ICR mice; female, 457 mg/kg i.p.
  Number of dead mice for 7 days: 6/6
  Number of dead mice, 1st day: 0/6
  Number of dead mice, 2nd day: 4/6
  Number of dead mice, 3rd day: 2/2
  Lethality: 100.0
ICR mice; male, 160 mg/kg i.p.
  Number of dead mice for 7 days: 0/6
  Number of dead mice, 1st day: 0/6
ICR mice; male, 208 mg/kg i.p.
  Number of dead mice for 7 days: 1/6
  Number of dead mice, 1st day: 0/6
  Number of dead mice, 3rd day: 1/6
  Lethality: 16.7
ICR mice; male, 270 mg/kg i.p.
  Number of dead mice for 7 days: 2/6
  Number of dead mice, 1st day: 0/6
  Number of dead mice, 4th day: 2/6
  Lethality: 33.3
ICR mice; male, 352 mg/kg i.p.
  Number of dead mice for 7 days: 4/6
  Number of dead mice, 1st day: 0/6
  Number of dead mice, 2nd day: 1/6
  Number of dead mice, 3rd day: 3/5
  Lethality: 66.7
ICR mice; male, 457 mg/kg i.p.
  Number of dead mice for 7 days: 6/6
  Number of dead mice, 1st day: 0/6
  Number of dead mice, 2nd day: 2/6
  Number of dead mice, 3rd day: 4/4
  Lethality: 100.0

## NC[C@H]1OC2(CCCC2)O[C@@H]1CN.O=C1C[O][Pt][O]1 [Example 3, (glycolato-O,O')[(4R,5R)-4,5-bis(aminomethyl)-1,3-dioxolane-2-spiro-1'-cyclopentane]platinum (II)]
[1]
  Solubility in water: 5800 µg/mL
[2]
  IC50 (concentration required for 50% inhibition of growth): 0.10 µg/mL
Murine leukemia L1210; 3.1 mg/kg i.p.
  T/C (%): 154%
Murine leukemia L1210; 6.2 mg/kg i.p.
  T/C (%): 161%
Murine leukemia L1210; 12.5 mg/kg i.p.
  T/C (%): 295%
Murine leukemia L1210; 25 mg/kg i.p.
  T/C (%): toxic
Murine leukemia L1210; 50 mg/kg i.p.
  T/C (%): toxic
ICR mice; female, 25.0 mg/kg i.p.
  Number of dead mice for 7 days: 0/6
  Number of dead mice, 1st day: 0/6
ICR mice; female, 32.5 mg/kg i.p.
  Number of dead mice for 7 days: 0/6
  Number of dead mice, 1st day: 0/6
ICR mice; female, 42.3 mg/kg i.p.
  Number of dead mice for 7 days: 2/6
  Number of dead mice, 1st day: 0/6
  Number of dead mice, 4th day: 1/6
  Number of dead mice, 5th day: 1/5
  Lethality: 33.3
ICR mice; female, 55.0 mg/kg i.p.
  Number of dead mice for 7 days: 5/6
  Number of dead mice, 1st day: 0/6
  Number of dead mice, 3rd day: 4/6
  Number of dead mice, 4th day: 1/2
  Lethality: 83.2
ICR mice; female, 71.4 mg/kg i.p.
  Number of dead mice for 7 days: 6/6
  Number of dead mice, 1st day: 0/6
  Number of dead mice, 3rd day: 4/6
  Number of dead mice, 4th day: 2/2
  Lethality: 100.0
ICR mice; male, 25.0 mg/kg i.p.
  Number of dead mice for 7 days: 0/6
  Number of dead mice, 1st day: 0/6
ICR mice; male, 32.5 mg/kg i.p.
  Number of dead mice for 7 days: 0/6
  Number of dead mice, 1st day: 0/6
  Number of dead mice, 4th day: 1/6
ICR mice; male, 42.3 mg/kg i.p.
  Number of dead mice for 7 days: 2/6
  Number of dead mice, 1st day: 0/6
  Number of dead mice, 4th day: 1/6
  Lethality: 33.3
ICR mice; male, 55.0 mg/kg i.p.
  Number of dead mice for 7 days: 6/6
  Number of dead mice, 1st day: 0/6
  Number of dead mice, 3rd day: 4/6
  Number of dead mice, 4th day: 1/2
  Number of dead mice, 5th day: 1/1
  Lethality: 100.0
ICR mice; male, 71.4 mg/kg i.p.
  Number of dead mice for 7 days: 6/6
  Number of dead mice, 1st day: 0/6
  Number of dead mice, 3rd day: 4/6
  Number of dead mice, 4th day: 2/2
  Lethality: 100.0
